Data reported in US4921865A, “Aminoacylates of glycerol acetal” (Societe de Conseils de Recherches et d'Applications …, priority 1987, dated 1990).

What was measured:
[1] = tested on: platelets (PAF induced platelet aggregation); experiment: inhibition of PAF-induced platelet aggregation in platelet rich plasma; assay type: cell-based, New Zealand rabbits; details: Oryctolagus cuniculus; rabbit platelet rich plasma, 2.5 nM PAF
Method: 1--INHIBITION OF THE PLATELETS AGGREGATION ON NEW ZEALAND RABBITS
The experimentation was conducted on platelets with plasma of New Zealand rabbits.
Blood samples were taken from auricular artery and placed in a citrate buffer (3.8 %; pH 7.4); blood was further centrifugated for 15 mn at 1200 RPM.
The tested sample was prepared in DMSO, then poured on platelets rich plasma for 1 mn, then a dose of 2.5 nM of PAF was added.
The determination is made on a Cronolog Coultronics apparatus which determines the transmission percentage corresponding to the maximum height of the peak before the desaggregation.
The percentage of variation of the inhibition with respect to the transmission percentage is calculated (control: pure DMSO).
This method was described in details in LABORATORY INVESTIGATIONS, Vol. 41, No. 3, p. 275, 1979, JEAN-PIERRE CAZENAVE, Dr. MED. , JACQUES BENVENISTE, Dr. MED., AND J. FRASER MUSTARD, M.D., "Aggregation of Rabbits Platelets by Platelet-Activating Factor Is Independent of the Release Reaction and the Arachidonate Pathway and Inhibited by Membrane-Active Drugs".
Five tests made on 5 different rabbits allowed us to calculate the IC50 of the various compounds using the linear regression test.

[2] = tested on: PAF-induced [Ca^2+ ]i mobilization, washed rabbits platelets; experiment: inhibition of intracytosolic free calcium mobilization induced by PAF in washed rabbit platelets; assay type: cell-based; details: PAF 2×10^-9 M; resting about 150 nM
Method: Blood was taken from the auricular artery of the rabbit on citric acid/sodium citrate/dextrose and anticoagulan and the washed platelets were prepared according to Ardlie et al., Brit. J. Pharmacology, 19, 7-17, 1970. They were incubated with acetylsalicylic salt (100 μM, 30 minutes) to avoid thromboxane induced aggregation. They were then loaded with the fluorescent calcium indicator dye quin 2 by incubation with quin 2 aceto-methylester (15 μM in DMSO, 20 minutes at room temperature) which penetrates the cell membrane and after hydrolysed is trapped in the platelet. Drugs were preincubated with platelets for 15 minutes simultaneously to CP/CPK mixture which destroys secreted ADP.
Fluorescent measurement was then performed (excitation λ=339 nm, emission λ=494 nm) after PAF addition to platelet suspension. The fluorescence intensity is proportional to the cytosolic free calcium level [Ca^2+ ]i which can be quantified as described by Tsien et al., J. Cell Biol., 94, 325-334, 1982.

[3] = tested on: polymorphonuclear leukocytes (PMNs); experiment: antagonism of polymorphonuclear leukocyte aggregation induced by PAF; assay type: cell-based, rat (Wistar); details: PAF 10^-8, rat PMNs
Method: Polymorphonuclear leukocytes (PMNs) were obtained as described by A. W. Ford-Hutchinson et al. (Br - J. Pharmacol. 76, 367-371, 1982). Cell suspensions ([…]) were prepared from peritoneal exudates obtained after a 5 ml IP injection of sodium caseinate 12% (w/v) to male Wistar rats, 300 g body weight.
After centrifugation, cells were washed with Hanks and resuspended in MEM/Hepes 30 mM medium (PM=7.4) at a concentration of 10^7 cells/ml. Cytochalasin B (5 μg/ml) was added 10 minutes before trigering aggregation to amplify the PMNs aggregation. The light transmittance through the cell suspension (400 μl) was measured under a 900 R/mn magnetic stirring, with a dual beam aggregometer (Chronolog Corp. Coultronics.)
The control cuvet is the cell suspension diluted to 20% of the cell count with MEM and the difference represents 100% transmittance. Change in transmittance, which occurs when PAF is added, was continuously recorded.
Drugs solubilized in MEM/Hepes were added (4 μl) to PMNs suspension 2 minutes before PAF addition.

[4] = biological target: T1, [^3 H]-PAF binding, platelet membrane (Oryctolagus cuniculus, UniProt G1TEI7); experiment: inhibition of specific [3H]-PAF binding to rabbit platelet membranes; details: 1 nM [3H]-PAF, 0°C 1 h 30
T1 construct: Platelet membrane homogenate was stored at -80° C; from tissue; host or cells: rabbit platelets (membrane homogenate from lysed washed platelets)
T1 sequence (G1TEI7 1-342): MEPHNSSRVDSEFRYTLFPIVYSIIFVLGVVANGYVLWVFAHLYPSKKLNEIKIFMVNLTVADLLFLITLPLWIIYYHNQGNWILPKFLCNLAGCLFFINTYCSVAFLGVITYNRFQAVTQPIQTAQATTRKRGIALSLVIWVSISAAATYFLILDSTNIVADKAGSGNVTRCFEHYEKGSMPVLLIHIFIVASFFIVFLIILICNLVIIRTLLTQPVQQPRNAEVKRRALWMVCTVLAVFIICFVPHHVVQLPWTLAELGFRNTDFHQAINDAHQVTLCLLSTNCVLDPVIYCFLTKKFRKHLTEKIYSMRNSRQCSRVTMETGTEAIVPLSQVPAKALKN
Method: Synthetic tritiated [^3 H]-PAF used was in ethanol solution with a specific activity of 59.5 ci/mmols. Unlabelled PAF and lyso-PAF were solubilized in ethanol solution and stored at -80° C. The compounds were solubilized in DMSO.
Rabbit whole blood (6 volumes) was drawn from the central ear artery into 1 volume of ACD solution (citric acide 1.4 g, sodium citrate 2 5 g, Dextrose 2 g per 100 ml of H2 O) and centrifuged at 150 g for 15 minutes. The platelet-rich plasma (PRP) was carefully removed and centrifuged for 15 minutes at 1000 g. The platelet pellet was then washed 3 times: twice in Tris-HCl buffer 10 mM, pH 7.4 containing NaCl 150 mM, MgCl2 5 mM, EDTA 2 mM and the last time in the same but sodium-free buffer.
The platelet pellet was resuspended in this latter buffer, quickly frozen in liquid nitrogen and slowly thawed at room temperature for at least 3 times as described by T. Y. Shen et al. The lysed platelets were centrifuged at 100,000 g for 30 minutes in a BECKMAN model L8.55 ultra centrifuge (rotor 50.2 Ti). Platelet membrane homogenate was stored at -80° C. and used within two weeks without noticeable changes in PAF-acether binding characteristics.
Protein contain was determined by the Lowry method using bovine serum albumine as standard.
60 to 100 μg of membrane proteins were added to a final volume of 1 ml in plastic tubes containing 1 nM [^3 H]-PAF in Tris-HCl 10 mM pH 7 buffer containing 0.025 % bovine serum albumin and incubated with or without unlabelled PAF or PAF-antagonists. The incubation was carried out for 1 h 30 at 0° C. The bound [^3 H]-PAF was separated from the free [^3 H]-PAF by immediate filtration through whatman GF/C glass fiber filters under vacuum (Brandel system). The reaction and the filters were washed 3 times with 5 ml of ice-cold buffer. The filters were then placed into polyethylene phials filled up with 10 ml of liquid scintillation fluid and the radioactivity was measured by an LKB β counter with 45% efficiency.
The non specific binding was determined in the presence of 10^-6 M of unlabelled PAF. The specific binding was calculated by substracting non specific binding from the total binding. The inhibition by compounds on the specific [^3 H]-PAF binding was determined as the percent inhibition by the equation: [formula]

Row | IC50 [1] [µM] | SMILES | also measured
1 | 7 | CCCCCCCCCCCCCCCCCC1OCC(COC(=O)CCC[n+]2ccccc2)O1 (stereo not drawn) [Example 4, 2-heptadecyl 4-[4'-(N-pyridinium)butyryloxymethyl] 1,3-dioxolan chloride] | 
2 |  | CCCCCCCCCCCCCCCCOCC(COP(=O)([O-])OCC[N+](C)(C)C)OC(C)=O (stereo not drawn) [PAF, reference compound] | [Ca^2+ ]i level after stimulation [2]: 400 to 600 nM; aggregation of PMNs induced [3]: 55 to 70%
3 | 21.5 | CCCCCCCCCCCCCCCCCC1(C)OCC(COC(=O)CCC[n+]2ccsc2)O1 (stereo not drawn) [Example 3, 2-heptadecyl 2-methyl 4-[4'-(N-thiazolinium)butyryloxymethyl]1,3-dixolan chloride] | 
4 | 3.1 | CCCCCCCCCCCCCCCCCC1OCC(COC(=O)CCC[n+]2cccc3ccccc32)O1 (stereo not drawn) [Example 5, 2-heptadecyl 4[4'-(N-quinolinium)butyryloxymethyl] 1,3 dioxalan chloride] | 
5 | 1.2 | CCCCCCCCCCCCCCCCCC1(C)OCC(COC(=O)CCC[n+]2cccc3ccccc32)O1 (stereo not drawn) [Example 2, 2-heptadecyl 2-methyl 4-[4'(N-quinolinium)butyryloxymethyl]1,3-dioxolan chloride] | 
6 | 11.3 | COc1cc(C2(C)OCC(COC(=O)CCC[n+]3ccccc3)O2)cc(OC)c1OC (stereo not drawn) [Example 8, 2-(3,4,5-trimethoxyphenyl) 2-methyl 4-[4'-(N-pyridinium)butyryloxymethyl] 1,3-dioxolan chloride] | 
7 | 1.46 | CCCCCCCCCC1(C)OCC(COC(=O)CCCCC[n+]2ccccc2)O1 (stereo not drawn) [Example 14, 2-nonyl 2-methyl 4-[6'-(N-pyridiniumhexanoyloxymethyl] 1,3-dioxolan bromide] | IC50 [4]: 0.61 µM
8 | 2.2 | CCCCCCCCCCCCCCCCCC1(C)OCC(COC(=O)CCC[n+]2ccccc2)O1 (stereo not drawn) [Example 1, 2-heptadecyl 2-methyl 4-[4'-(N-pyridinium)butyryloxymethyl]-1,3-dioxolan chloride] | IC50 [4]: 0.45 µM
9 | 3.04 | CCCCCCCCCCCCCCCCCC1(CCC)OCC(COC(=O)CCC[n+]2ccccc2)O1 (stereo not drawn) [Example 6, 2-heptadecyl 2-(n-propyl 4-(4'-(N-pyridinium)butyryloxymethyl]1,3-dioxolan chloride] | 
10 | 1.73 | CCCCCCCCCCCCCCCCCC1(CCC)OCC(COC(=O)CCCCC[n+]2ccccc2)O1 (stereo not drawn) [Example 13, 2-heptadecyl 2-(n-propyl) 4-[6'-(N-pyridinium)hexanoylmethyl] 1,3-dioxolanbromide] | 
11 | 31.2 | CCCCCCCCCCCCCCCCCC1(C)OCC(COC(=O)CCCCCCCCCC[n+]2ccccc2)O1 (stereo not drawn) [Example 12, 2-heptadecyl 2-methyl 4-[11'-(N-pyridiniumundecanoyloxymethyl) 1,3-dioxolan bromide] | 
12 | 5 | CCCCCCCCCCCCCCCCCC1(C)OCC(COC(=O)CCCC[n+]2ccccc2)O1 (stereo not drawn) [Example 7, 2-heptadecyl 2-methyl 4-[5'-(N-pyridinium)pentanoyloxymethyl]1,3-dioxolanchloride] | 
